pIC50: −log10 of the molar value.
What was measured:
[1] = tested on: CCRF-CEM; experiment: Inhibition of cellular growth by the MTT colorimetric assay in CCRF-CEM, human lymphoblasticof T-cell origin
[2] = tested on: GC3/MTK-; experiment: Inhibition of cellular growth by the MTT colorimetric assay in GC3/M TK-, a human thymidine kinase deficient adenocarcinoma line
[3] = tested on: L1210; experiment: Inhibition of cellular growth by the MTT colorimetric assay in L1210, murine leukemia cell line; conditions: Mus musculus
[4] = Compound was evaluated for thymidylate shift expressed as the ratio of the IC50 in the presence of […] uM thymidylate divided by the IC50 with no thymidylate added
[5] = biological target: Thymidylate synthase (Homo sapiens) (UniProt P04818)
Description: (§1) Inhibitory activity against thymidylate synthase from human

[6] = biological target: Thymidylate synthase (Homo sapiens) (UniProt P04818); remark: listed apart in the source
Description: as §1

[7] = biological target: Thymidylate synthase (Escherichia coli) (UniProt C3SWJ7)
Description: Inhibitory activity against thymidylate synthase from Escherichia coli

[8] = biological target: Thymidylate synthase (Escherichia coli) (UniProt C3SWJ7); remark: listed apart in the source
Description: Compound was evaluated for its inhibitory activity against thymidylate synthase from Escherichia coli

Sequence of Thymidylate synthase (Escherichia coli) (C3SWJ7 1-264): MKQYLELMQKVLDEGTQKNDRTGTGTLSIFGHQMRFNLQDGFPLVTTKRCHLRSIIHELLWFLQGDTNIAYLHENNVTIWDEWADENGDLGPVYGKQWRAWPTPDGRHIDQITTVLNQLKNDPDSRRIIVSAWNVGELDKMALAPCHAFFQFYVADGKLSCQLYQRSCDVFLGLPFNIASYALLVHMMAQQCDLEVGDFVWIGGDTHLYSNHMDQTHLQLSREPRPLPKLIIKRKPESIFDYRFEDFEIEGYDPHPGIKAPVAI
Sequence of Thymidylate synthase (Homo sapiens) (P04818 2-313 limits assumed): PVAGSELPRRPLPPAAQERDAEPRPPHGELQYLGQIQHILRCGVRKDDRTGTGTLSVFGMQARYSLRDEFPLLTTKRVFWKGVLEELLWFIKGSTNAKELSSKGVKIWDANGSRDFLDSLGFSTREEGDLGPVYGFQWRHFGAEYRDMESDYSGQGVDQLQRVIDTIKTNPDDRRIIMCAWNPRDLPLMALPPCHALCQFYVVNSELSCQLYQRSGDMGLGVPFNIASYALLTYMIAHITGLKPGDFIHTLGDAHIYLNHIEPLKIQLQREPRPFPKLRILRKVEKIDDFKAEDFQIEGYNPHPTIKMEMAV

| SMILES | pIC50 [1] | pIC50 [3] | Thymidylate shift [4] | Kis [5] | Kii [6] | Kii [7] | Kis [8] | pIC50 [2] |
| --- | --- | --- | --- | --- | --- | --- | --- | --- |
| CCN(Cc1ccc(S(=O)(=O)c2ccccc2)cc1)c1ccc2c3c(cccc13)C(N)=N2 | 5.90 | 6.15 | – | – | – | – | – | 5.52 |
| CSC1Nc2ccc(N(C)Cc3ccc(S(=O)(=O)c4ccc(O)cc4)cc3)c3cccc1c23 (stereo unspecified) | < 5.40 | < 5.40 | – | – | – | – | – | < 5.40 |
| Cc1ccc2c3c(ccc(N(C)Cc4ccc(S(=O)(=O)N5CCOCC5)cc4)c13)N=C2N | 6.66 | 6.66 | – | – | – | – | – | 6.36 |
| COc1ccc(S(=O)(=O)c2ccc(CN(C)c3ccc4c5c(ccc(C)c35)C(N)=N4)cc2)cc1 | 6.40 | 6.51 | – | – | – | – | – | 6.01 |
| Cc1ccc2c3c(ccc(N(C)Cc4ccc(S(=O)(=O)c5ccccc5)cc4)c13)N=C2N | 6.44 | 6.60 | 3.85 | – | – | – | – | 6.28 |
| COc1ccc(S(=O)(=O)c2ccc(CN(C)c3ccc4c5c(ccc(C)c35)C(NO)=N4)cc2)cc1 | 5.30 | 5.39 | – | – | – | – | – | < 5.00 |
| COc1ccc(S(=O)(=O)c2ccc(CN(C)c3ccc4c5c(cccc35)C(N)=N4)cc2)cc1 | 5.68 | 5.92 | – | – | – | – | – | 5.68 |
| CNC1=Nc2ccc(N(C)Cc3ccc(S(=O)(=O)c4ccccc4)cc3)c3cccc1c23 | 5.48 | 5.80 | – | – | – | – | – | 5.47 |
| Cc1ccc2c3c(ccc(N(C)Cc4ccc(S(=O)(=O)c5ccc([N+](=O)[O-])cc5)cc4)c13)N=C2N | 6.16 | 6.24 | – | – | – | – | – | 6.04 |
| COc1ccc(S(=O)(=O)c2ccc(CN(C)c3ccc4c5c(ccc(C)c35)C(=O)N4)cc2)cc1 | 5.40 | 5.70 | – | – | – | – | – | < 5.30 |
| Cc1ccc2c3c(ccc(NCc4ccc(S(=O)(=O)c5ccccc5)cc4)c13)NC2=O | 5.60 | 5.70 | – | – | – | – | – | < 5.30 |
| CN(Cc1ccc(S(=O)(=O)N2CCOCC2)cc1)c1ccc2c3c(ccc(Cl)c13)C(N)=N2 | 6.05 | 6.36 | – | – | – | – | – | 5.85 |
| CN(Cc1ccc(S(=O)(=O)c2ccc(O)cc2)cc1)c1ccc2c3c(cccc13)C(N)=N2 | 5.57 | 5.68 | – | – | – | – | – | 5.39 |
| Cc1ccc2c3c(ccc(N(C)Cc4ccc(S(=O)(=O)c5ccc(N)cc5)cc4)c13)NC2=O | 5.30 | 5.48 | – | – | – | – | – | < 5.30 |
| CNC1=Nc2ccc(N(C)Cc3ccc(S(=O)(=O)c4ccc(OC)cc4)cc3)c3c(C)ccc1c23 | 6.05 | 6.14 | – | – | – | – | – | 5.82 |
| CN(Cc1ccc(S(=O)(=O)c2ccccc2)cc1)c1ccc2c3c(cccc13)C(NO)=N2 | 5.70 | 6.09 | – | – | – | – | – | < 5.30 |
| CC(=O)c1cccc2c(N(C)Cc3ccc(S(=O)(=O)c4ccc(N)cc4)cc3)ccc(N)c12 | 5.23 | 5.04 | – | – | – | – | – | < 5.00 |
| CN(Cc1ccc(S(=O)(=O)c2ccccc2)cc1)c1ccc2c3c(cccc13)C(NN)=N2 | 5.89 | 5.62 | – | – | – | – | – | < 5.00 |
| Cc1ccc2c3c(ccc(N(C)Cc4ccc(S(=O)(=O)c5ccc([N+](=O)[O-])cc5)cc4)c13)NC2=O | 5.62 | 6.05 | – | – | – | – | – | < 5.30 |
| Cc1ccc2c3c(ccc(N(C)Cc4ccc(S(=O)(=O)c5ccc(N)cc5)cc4)c13)N=C2N | 6.70 | 6.55 | – | – | – | – | – | 6.57 |

Further lines, with some results ahead:

| pIC50 [1] | pIC50 [3] | Thymidylate shift [4] | Kis [5] | Kii [6] | Kii [7] | Kis [8] | SMILES | pIC50 [2] |
| --- | --- | --- | --- | --- | --- | --- | --- | --- |
| 5.55 | 5.70 | – | – | – | – | – | CN(Cc1ccc(S(=O)(=O)c2ccc([N+](=O)[O-])cc2)cc1)c1ccc2c3c(cccc13)C(=O)N2 | < 5.30 |
| 6.34 | 6.31 | – | 0.012 µM | 0.015 µM | 5.4 µM | 1.8 µM | CN(Cc1ccc(S(=O)(=O)N2CCOCC2)cc1)c1ccc2c3c(cccc13)C(=N)N2 | 6.05 |
| < 5.30 | < 5.30 | – | – | – | – | – | CN(Cc1ccc(S(=O)(=O)N2CCOCC2)cc1)c1ccc2c3c(cccc13)C(=O)N2 | < 5.30 |
| 6.21 | 6.74 | – | – | – | 0.088 µM | 0.055 µM | CNC1=Nc2ccc(N(C)Cc3ccc(S(=O)(=O)N4CCOCC4)cc3)c3c(C)ccc1c23 | 6.68 |
| 4.51 | 4.30 | – | – | – | – | – | O=C1Nc2ccc(N(CCO)Cc3ccc(S(=O)(=O)N4CCNCC4)cc3)c3cccc1c23 | < 4.30 |
| < 5.30 | < 5.30 | – | – | – | – | – | CN(Cc1ccc(S(=O)(=O)N2CCOCC2)cc1)c1ccc2c3c(ccc(Cl)c13)C(=O)N2 | < 5.30 |
| 5.17 | 5.41 | – | – | – | – | – | CC(C)N(Cc1ccc(S(=O)(=O)N2CCNCC2)cc1)c1ccc2c3c(cccc13)C(=O)N2 | 5.23 |
| 5.51 | 5.54 | – | – | – | – | – | CCCN(Cc1ccc(S(=O)(=O)N2CCNCC2)cc1)c1ccc2c3c(cccc13)C(=O)N2 | 5.27 |
| 5.51 | 5.72 | – | – | – | – | – | CSc1ccc2c3c(ccc(N(C)Cc4ccc(S(=O)(=O)N5CCOCC5)cc4)c13)N=C2N | 5.16 |
| < 5.30 | 5.74 | – | – | – | – | – | CNC1=Nc2ccc(N(C)Cc3ccc(S(=O)(=O)N4CCOCC4)cc3)c3cccc1c23 | < 5.30 |
| 5.02 | 5.00 | – | – | – | – | – | CN(Cc1ccc(S(=O)(=O)c2ccc(O)cc2)cc1)c1ccc2c3c(cccc13)C(=O)N2 | 5.02 |
| 4.82 | 4.67 | – | – | – | – | – | O=C1Nc2ccc(N(CCCO)Cc3ccc(S(=O)(=O)N4CCNCC4)cc3)c3cccc1c23 | 4.52 |
| < 5.40 | 5.64 | – | – | – | – | – | O=C1Nc2ccc(NCc3ccc(S(=O)(=O)c4ccccc4)cc3)c3cccc1c23 | < 5.40 |
| 5.55 | 5.68 | – | – | – | – | – | CSCN(Cc1ccc(S(=O)(=O)c2ccccc2)cc1)c1ccc2c3c(cccc13)C(=O)N2 | < 5.00 |
| < 5.48 | 5.52 | – | – | – | – | – | CCN(Cc1ccc(S(=O)(=O)c2ccccc2)cc1)c1ccc2c3c(cccc13)C(=O)N2 | 5.48 |
| 5.52 | 5.34 | – | – | – | – | – | COc1ccc(S(=O)(=O)c2ccc(CN(C)c3ccc4c5c(cccc35)C(=O)N4)cc2)cc1 | 5.00 |
| 5.32 | 5.72 | – | – | – | – | – | Cc1ccc2c3c(ccc(N(C)Cc4ccc(S(=O)(=O)c5ccccc5)cc4)c13)NC2=O | < 5.30 |
| 5.41 | 5.59 | – | – | – | – | – | Cc1ccc2c3c(ccc(N(C)Cc4ccc(S(=O)(=O)N5CCOCC5)cc4)c13)NC2=O | < 5.30 |

Reference: ChEMBL document CHEMBL1125372, “Crystal-structure-based design and synthesis of benz[cd]indole-containing inhibitors of thymidylate synthase” (J Med Chem, 1992)
